From PMC10435995 (Life Science Alliance, 2023) come the findings set out here.

SMILES strings stand for the structures.

The target of this assay is T1, hDHFR (dihydrofolate reductase) (Homo sapiens, UniProt P00374).
T1 construct: gene DHFR; recombinant hDHFR (8456-DR-100; R&D Systems)
T1 sequence (P00374 1-187): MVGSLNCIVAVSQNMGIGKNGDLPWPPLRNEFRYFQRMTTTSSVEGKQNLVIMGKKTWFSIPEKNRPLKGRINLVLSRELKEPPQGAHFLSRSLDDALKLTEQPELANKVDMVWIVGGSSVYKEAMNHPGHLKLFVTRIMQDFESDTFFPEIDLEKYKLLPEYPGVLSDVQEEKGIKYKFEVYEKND
Put plainly: ITC at […]°C without NADPH (also enzyme inhibition, CETSA, TPP). The following applies: read-out: Average Kd (±s.d.). It is filed as binding.

Broadly, the Kd is the free concentration of one partner at which half of the binding sites on the other are occupied at equilibrium, for simple one-to-one binding. `Cc1nc(N)nc(N)c1/C=C/C1(c2ccc(C(F)(F)F)cc2)CC1` [C1]: the Kd stood at 28.1 ± 18.4 nM.
